Reference: ChEMBL document CHEMBL1201862, “PubChem BioAssay data set” (2004)
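1) Cells in 96-well plates. 2) Compound, 48 h, 5 concentrations. 3) Linear interpolation between surrounding doses. 4) Unreached endpoint = highest concentration. GI50 = concentration required for 50% inhibition of growth.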 Activity calls are given as the source filed them. No stated cut-off is given here; in the data, active = GI50 up to about 1.1 µM and inactive = higher.

How the values were obtained:
Test in all cases: NCI anticancer screen, dose series, 48 h
MDA-MB-435 = test system: MDA-MB-435
A498 = test system: A498
U-251 = test system: U-251
KM12 = test system: KM12
HOP-62 = test system: HOP-62
MDA-MB-231 = test system: MDA-MB-231
CAKI-1 = test system: CAKI-1
UACC-257 = test system: UACC-257
OVCAR-3 = test system: OVCAR-3
Hs-578T = test system: Hs-578T
DU-145 = test system: DU-145
NCI-H226 = test system: NCI-H226
SF-539 = test system: SF-539
SNB-19 = test system: SNB-19
MCF7 = test system: MCF7
NCI-H522 = test system: NCI-H522
SK-MEL-2 = test system: SK-MEL-2
SW-620 = test system: SW-620
786-0 = test system: 786-0
SN12C = test system: SN12C

| Structure (SMILES) | GI50 (MDA-MB-435) | GI50 (A498) | GI50 (U-251) | GI50 (KM12) | GI50 (HOP-62) | GI50 (MDA-MB-231) | GI50 (CAKI-1) | GI50 (UACC-257) | GI50 (OVCAR-3) | GI50 (Hs-578T) | GI50 (DU-145) | GI50 (NCI-H226) | GI50 (SF-539) | GI50 (SNB-19) | GI50 (MCF7) | GI50 (NCI-H522) | GI50 (SK-MEL-2) | GI50 (SW-620) | GI50 (786-0) | GI50 (SN12C) |
| --- | --- | --- | --- | --- | --- | --- | --- | --- | --- | --- | --- | --- | --- | --- | --- | --- | --- | --- | --- | --- |
| NC(Cc1c[nH]c(I)n1)C(=O)O (stereo not given) | > 100 µM (inactive) | > 100 µM (inactive) | > 100 µM (inactive) | > 100 µM (inactive) | > 100 µM (inactive) | > 100 µM (inactive) | 29.3 µM (inactive) | 41.1 µM (inactive) | 32.4 µM (inactive) | 23.8 µM (inactive) | > 100 µM (inactive) | > 100 µM (inactive) | 37.4 µM (inactive) | > 100 µM (inactive) | 41.4 µM (inactive) | 24.3 µM (inactive) | > 100 µM (inactive) | 30 µM (inactive) | > 100 µM (inactive) | > 100 µM (inactive) |
| CCCCCCCCCCCCC/C=C/[C@@H](O)[C@H](COC1OC(CO)C(OC2OC(CO)C(O)C(OC3(C(=O)O)CC(O)C(NC(C)=O)C(C(O)C(O)CO)O3)C2O)C(O)C1O)N=[N+]=[N-] (stereo not given in full) | > 100 µM (inactive) | 47.2 µM (inactive) | 19.9 µM (inactive) | 18.5 µM (inactive) | 20.5 µM (inactive) | > 100 µM (inactive) | > 100 µM (inactive) | 40 µM (inactive) | > 100 µM (inactive) | 55.7 µM (inactive) | > 100 µM (inactive) | 20.8 µM (inactive) | 17.5 µM (inactive) | 34 µM (inactive) | > 100 µM (inactive) | 32.5 µM (inactive) | 17.5 µM (inactive) | 26.7 µM (inactive) | > 100 µM (inactive) | > 100 µM (inactive) |
| O=C(O)C1CSC2(CCCN(Cc3ccccc3)C2)N1 (stereo not given) | > 76.7 µM (inactive) | > 100 µM (inactive) | > 100 µM (inactive) | > 100 µM (inactive) | > 100 µM (inactive) | > 100 µM (inactive) | > 100 µM (inactive) | > 100 µM (inactive) | > 100 µM (inactive) | > 100 µM (inactive) | > 100 µM (inactive) | > 100 µM (inactive) | > 100 µM (inactive) | > 100 µM (inactive) | > 100 µM (inactive) | > 100 µM (inactive) | > 100 µM (inactive) | > 100 µM (inactive) | > 100 µM (inactive) | > 100 µM (inactive) |
| Cc1cc(C)c2c(=O)n(CC(O)CN3CCN(c4ncccn4)CC3)sc2n1 (stereo not given) | 16.6 µM (inactive) | 17.4 µM (inactive) | 17.8 µM (inactive) | 20.8 µM (inactive) | 20.3 µM (inactive) | 17.5 µM (inactive) | 20 µM (inactive) | 16.7 µM (inactive) | 19.4 µM (inactive) | 21.4 µM (inactive) | 16.6 µM (inactive) | 96.8 µM (inactive) | 17.8 µM (inactive) | 64.3 µM (inactive) | 17.9 µM (inactive) | 13 µM (inactive) | 18.7 µM (inactive) | 19.5 µM (inactive) | 14.5 µM (inactive) | 17.8 µM (inactive) |
| Cc1ccc(NC(=O)c2ccccc2C(=O)O)cc1C | > 100 µM (inactive) | > 100 µM (inactive) | > 100 µM (inactive) | > 100 µM (inactive) | > 100 µM (inactive) | > 100 µM (inactive) | > 100 µM (inactive) | > 100 µM (inactive) | > 100 µM (inactive) | > 100 µM (inactive) | > 100 µM (inactive) | > 100 µM (inactive) | > 100 µM (inactive) | > 100 µM (inactive) | > 100 µM (inactive) | > 100 µM (inactive) | > 100 µM (inactive) | > 100 µM (inactive) | > 100 µM (inactive) | > 100 µM (inactive) |
| COC(=O)c1ccc(/C=C/c2cc(O)ccc2O)cc1 | 3.21 µM (inactive) | 5.15 µM (inactive) | 2.51 µM (inactive) | 3.81 µM (inactive) | 27.2 µM (inactive) | 2.74 µM (inactive) | 2.43 µM (inactive) | 6.27 µM (inactive) | 1.18 µM (inactive) | 4.95 µM (inactive) | 14.9 µM (inactive) | 12.6 µM (inactive) | 1.6 µM (inactive) | 33.3 µM (inactive) | 5.14 µM (inactive) | 0.194 µM (active) | 14.3 µM (inactive) | 3.69 µM (inactive) | 3.05 µM (inactive) | 2.38 µM (inactive) |
| COC(=O)C1OC(SCCN)C(O)C(O)C1O (stereo not given) | > 100 µM (inactive) | > 100 µM (inactive) | > 100 µM (inactive) | > 100 µM (inactive) | > 100 µM (inactive) | > 100 µM (inactive) | > 100 µM (inactive) | > 100 µM (inactive) | > 100 µM (inactive) | > 100 µM (inactive) | > 100 µM (inactive) | > 100 µM (inactive) | > 100 µM (inactive) | > 100 µM (inactive) | > 100 µM (inactive) | > 100 µM (inactive) | > 100 µM (inactive) | > 100 µM (inactive) | > 100 µM (inactive) | > 100 µM (inactive) |
| COc1ccc2c(c1)C(=O)C(=O)c1cc(O)c(OC)c(OC)c1-2 | 0.115 µM (active) | 4.48 µM (inactive) | 0.863 µM (active) | 0.979 µM (active) | 0.845 µM (active) | 0.957 µM (active) | 0.918 µM (active) | 0.91 µM (active) | 0.946 µM (active) | 1.07 µM (active) | 0.918 µM (active) | 5.64 µM (inactive) | 1.85 µM (inactive) | 1.01 µM (active) | 0.902 µM (active) | 0.927 µM (active) | 0.861 µM (active) | 1.2 µM (inactive) | 0.836 µM (active) | 0.879 µM (active) |
| CC(=O)/C(=C/c1ccccc1F)C(=O)c1ccccc1 | 37.9 µM (inactive) | > 100 µM (inactive) | 29.6 µM (inactive) | 30.9 µM (inactive) | 35.2 µM (inactive) | 26.1 µM (inactive) | > 100 µM (inactive) | 25.9 µM (inactive) | 18.6 µM (inactive) | 32.4 µM (inactive) | 33.6 µM (inactive) | 76.4 µM (inactive) | > 100 µM (inactive) | 60.7 µM (inactive) | 37.2 µM (inactive) | 26.5 µM (inactive) | 27.5 µM (inactive) | 20.7 µM (inactive) | 31.7 µM (inactive) | 37.2 µM (inactive) |
| NCCCNCCCCN1CCOC1=O | > 100 µM (inactive) | > 100 µM (inactive) | > 100 µM (inactive) | > 100 µM (inactive) | > 100 µM (inactive) | > 100 µM (inactive) | > 100 µM (inactive) | > 100 µM (inactive) | > 100 µM (inactive) | > 100 µM (inactive) | > 100 µM (inactive) | > 100 µM (inactive) | > 100 µM (inactive) | > 100 µM (inactive) | > 100 µM (inactive) | > 100 µM (inactive) | > 100 µM (inactive) | > 100 µM (inactive) | > 100 µM (inactive) | > 100 µM (inactive) |
